{"source": "patent US10822301B2", "about": "“3-carbon substituted 4-aminocyclopent-1-ene-1-carboxylic acid compounds as inhibitors of gamma-aminobutyric acid (GABA) aminotransferase” (Northwestern University, priority 2018, dated 2020)", "origin": "cited, not measured here", "key": {"[1]": {"system": "cocaine addiction in humans", "settings": "9-week double-blind trial"}, "[2]": {"system": "epilepsy patients", "settings": "long-term administration, share of epilepsy patients"}}}
{"compound": "C=CC(N)CCC(=O)O", "note": "(centres unmarked) [vigabatrin]", "values": [{"measurement": "patients achieving abstinence", "setting": "[1]", "result": "up to 28%"}, {"measurement": "permanent vision loss (damage of the retinal nerve fiber layer)", "setting": "[2]", "result": "25-40%"}]}
